According to patent US20100267561A1, “HERBICIDAL PYRIDAZINONE DERIVATIVES” (priority 2007, published 2010):

Legend:
Experiment in all cases: Test B pre-/postemergence plant response
Assay type in all cases: in vivo
[1] = test system: woolly cupgrass (Eriochloa villosa)
Summary of the method: (§1)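 Seeds were sown and sprayed preemergence, while plants at 2 to 18 cm (1- to 4-leaf stage) got postemergence sprays. Compounds were formulated in a non-phytotoxic solvent mixture with surfactant. After 13 to 15 days in a greenhouse, injury was rated visually against untreated controls, 0 (no effect) to 100 (complete control).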

corn (Zea mays) = test system: corn (Zea mays)
Summary of the method: as §1

[2] = test system: common ragweed (Ambrosia elation)
Summary of the method: as §1

[3] = test system: catchweed bedstraw (Galium aparine); settings: Preemergence; for Galium plant response rating: scale 0 to 100
Summary of the method: as §1

[4] = test system: giant foxtail (Setaria faberii)
Summary of the method: as §1

[5] = test system: morningglory (Ipomoea coccinea)
Summary of the method: as §1

[6] = test system: pigweed (Amaranthus retroflexus)
Summary of the method: as §1

[7] = test system: lambsquarters (Chenopodium album)
Summary of the method: as §1

[8] = test system: surinam grass (Brachiaria decumbens)
Summary of the method: as §1

[9] = test system: downy bromegrass (Bromus tectorum)
Summary of the method: as §1

[10] = test system: goosegrass (Eleusine indica)
Summary of the method: as §1

[11] = test system: blackgrass (Alopecurus myosuroides)
Summary of the method: as §1

wild oat (Avena fatua) = test system: wild oat (Avena fatua)
Summary of the method: as §1

[12] = test system: green foxtail (Setaria viridis)
Summary of the method: as §1

[13] = 8 g ai/ha, postemergence, 0-100 scale
[14] = Postemergence, 16 g ai/ha, scale 0 to 100
[15] = Postemergence, 31 g ai/ha, scale 0 to 100
[16] = Postemergence, 62 g ai/ha, scale 0 to 100, 0 no effect, 100 complete control
[17] = Preemergence, 31 g ai/ha, scale 0 to 100 (0 no effect, 100 complete control)
[18] = Preemergence, 62 g ai/ha, 0 to 100 scale, 0 no effect, 100 complete control
[19] = Preemergence, 8 g ai/ha, scale 0 to 100
[20] = Preemergence, 16 g ai/ha, scale 0 to 100
[21] = 16 g ai/ha, postemergence, 0-100 scale

CCCc1cc(-c2ccc(Cl)cc2)nn1-c1c(O)cnn(C)c1=O [Compound 76]
Cupgrass, Woolly plant response rating [1, 13]: 60
Plant response rating, Cupgrass, Woolly [1, 14]: 65
Plant response rating, Cupgrass, Woolly [1, 15]: 85
Plant response rating, Cupgrass, Woolly [1, 16]: 90
Plant response rating, Cupgrass, Woolly [1, 17]: 90
Plant response rating, Cupgrass, Woolly [1, 18]: 98
Cupgrass, Woolly plant response rating [1, 19]: 55
Cupgrass, Woolly plant response rating [1, 20]: 75
Corn plant response rating (corn (Zea mays); [13]): 75
Plant response rating, Corn (corn (Zea mays); [14]): 85
Plant response rating, Corn (corn (Zea mays); [15]): 100
Plant response rating, Corn (corn (Zea mays); [16]): 100
Plant response rating, Corn (corn (Zea mays); [17]): 75
Plant response rating, Corn (corn (Zea mays); [18]): 85
Corn plant response rating (corn (Zea mays); [19]): 0
Corn plant response rating (corn (Zea mays); [20]): 55
Ragweed plant response rating [2, 13]: 0
Ragweed plant response rating [2, 21]: 0
Plant response rating, Ragweed [2, 15]: 0
Plant response rating, Ragweed [2, 16]: 0
Plant response rating, Ragweed [2, 17]: 0
Plant response rating, Ragweed [2, 18]: 0
Ragweed plant response rating [2, 19]: 0
Ragweed plant response rating [2, 20]: 0
Plant response rating, Galium ([3]; 31 g ai/ha, scale 0 to 100 (0 no effect, 100 complete control)): 0
Plant response rating, Galium ([3]; 62 g ai/ha, 0 to 100 scale, 0 no effect, 100 complete control): 0
Galium plant response rating ([3]; 8 g ai/ha): 0
Galium plant response rating ([3]; 16 g ai/ha): 0
Foxtail, Giant plant response rating [4, 13]: 75
Plant response rating, Foxtail, Giant [4, 14]: 85
Plant response rating, Foxtail, Giant [4, 15]: 95
Plant response rating, Foxtail, Giant [4, 16]: 98
Plant response rating, Foxtail, Giant [4, 17]: 90
Plant response rating, Foxtail, Giant [4, 18]: 100
Foxtail, Giant plant response rating [4, 19]: 0
Foxtail, Giant plant response rating [4, 20]: 70
Morningglory plant response rating [5, 13]: 0
Morningglory plant response rating [5, 21]: 0
Plant response rating, Morningglory [5, 15]: 0
Plant response rating, Morningglory [5, 16]: 0
Plant response rating, Morningglory [5, 17]: 0
Plant response rating, Morningglory [5, 18]: 0
Morningglory plant response rating [5, 19]: 0
Morningglory plant response rating [5, 20]: 0
Pigweed plant response rating [6, 13]: 0
Pigweed plant response rating [6, 21]: 0
Plant response rating, Pigweed [6, 15]: 0
Plant response rating, Pigweed [6, 16]: 0
Plant response rating, Pigweed [6, 17]: 0
Plant response rating, Pigweed [6, 18]: 0
Pigweed plant response rating [6, 19]: 0
Pigweed plant response rating [6, 20]: 0
Lambsquarters plant response rating [7, 13]: 0
Lambsquarters plant response rating [7, 21]: 0
Plant response rating, Lambsquarters [7, 15]: 0
Plant response rating, Lambsquarters [7, 16]: 0
Plant response rating, Lambsquarters [7, 17]: 0
Plant response rating, Lambsquarters [7, 18]: 0
Lambsquarters plant response rating [7, 19]: 0
Lambsquarters plant response rating [7, 20]: 0
Surinam Grass plant response rating [8, 13]: 65
Surinam Grass plant response rating [8, 21]: 90
Plant response rating, Surinam Grass [8, 15]: 100
Plant response rating, Surinam Grass [8, 16]: 100
Plant response rating, Surinam Grass [8, 17]: 95
Plant response rating, Surinam Grass [8, 18]: 100
Surinam Grass plant response rating [8, 19]: 65
Surinam Grass plant response rating [8, 20]: 90
Bromegrass, Downy plant response rating [9, 13]: 0
Plant response rating, Bromegrass, Downy [9, 14]: 0
Plant response rating, Bromegrass, Downy [9, 15]: 0
Plant response rating, Bromegrass, Downy [9, 16]: 20
Plant response rating, Bromegrass, Downy [9, 17]: 0
Plant response rating, Bromegrass, Downy [9, 18]: 0
Bromegrass, Downy plant response rating [9, 19]: 0
Bromegrass, Downy plant response rating [9, 20]: 0
Goosegrass plant response rating [10, 13]: 20
Goosegrass plant response rating [10, 21]: 60
Plant response rating, Goosegrass [10, 15]: 70
Plant response rating, Goosegrass [10, 16]: 75
Plant response rating, Goosegrass [10, 17]: 80
Plant response rating, Goosegrass [10, 18]: 100
Goosegrass plant response rating [10, 19]: 20
Goosegrass plant response rating [10, 20]: 75
Blackgrass plant response rating [11, 13]: 70
Plant response rating, Blackgrass [11, 14]: 85
Plant response rating, Blackgrass [11, 15]: 100
Plant response rating, Blackgrass [11, 16]: 100
Plant response rating, Blackgrass [11, 17]: 80
Plant response rating, Blackgrass [11, 18]: 90
Blackgrass plant response rating [11, 19]: 40
Blackgrass plant response rating [11, 20]: 40
Oat, Wild plant response rating (wild oat (Avena fatua); [13]): 80
Oat, Wild plant response rating (wild oat (Avena fatua); [21]): 95
Plant response rating, Oat, Wild (wild oat (Avena fatua); [15]): 100
Plant response rating, Oat, Wild (wild oat (Avena fatua); [16]): 100
Plant response rating, Oat, Wild (wild oat (Avena fatua); [17]): 5
Plant response rating, Oat, Wild (wild oat (Avena fatua); [18]): 80
Oat, Wild plant response rating (wild oat (Avena fatua); [19]): 0
Oat, Wild plant response rating (wild oat (Avena fatua); [20]): 0
Foxtail, Green plant response rating [12, 13]: 65
Plant response rating, Foxtail, Green [12, 14]: 85
Plant response rating, Foxtail, Green [12, 15]: 95
Plant response rating, Foxtail, Green [12, 16]: 100
Plant response rating, Foxtail, Green [12, 17]: 90
Plant response rating, Foxtail, Green [12, 18]: 90
Foxtail, Green plant response rating [12, 19]: 40
Foxtail, Green plant response rating [12, 20]: 65
